Measured values reported in US20260103471A1, “CYCLIC UREA THIAZOLYL COMPOUNDS FOR TREATMENT OF HSV” (Assembly Biosciences, Inc., priority 2022, published 2026).
Like-named read-outs stand apart in the source and are kept apart here.

Columns and labels:
[1] = tested on: HSV; settings: long-term suppressive treatment; cited from earlier work
[2] = tested on: HSV-2 G strain; assay: HSV-2 Antiviral Assay (Vero cells, cell viability); format: cell-based; settings: for EC50: Human alphaherpesvirus 2, Vero, 120 h, Vero cells, 5 days
Method in brief: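 Antiviral readout is survival of infected Vero cells: after 5 days at 37 °C with 160 TCID50 HSV-2 G strain plus serially diluted compound (8 points, 3-fold, 0.5% DMSO), WST-8 was added for 3 h and absorbance measured at 460/620 nm. Cells seeded at 1.0×10^4 per well.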

[3] = tested on: HSV-1; assay: HSV-1 Antiviral Assay (Vero cells, cell viability); format: cell-based; settings: Human alphaherpesvirus 1, 96 h, Vero cells, read-out: HSV-1 EC50
Method in brief: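 Vero cells (2.5×10^3/well) received 8-point 3-fold compound dilutions in 2% FBS medium (0.5% DMSO), then 80 TCID50 HSV-1. After 4 days at 37 °C, cell viability was measured by CellTiter-Glo luminescence.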

[4] = 160 TCID50 HSV-2 G strain, cell viability
[5] = 80 TCID50 HSV-1, 4 days, cell viability

Row | SMILES | EC50 [2, 4] [nM] | EC50 [3, 5] [nM] | further results
1 | CC(C)[C@H](N)C(=O)OCCOCn1cnc2c(=O)[nH]c(N)nc21 [valacyclovir] |  |  | reduce transmission risk [1]: 46%
2 | Cc1nc(N2CC(F)CN(c3ccc(-c4cc(F)ccc4F)cc3)C2=O)sc1S(N)(=O)=O (stereo not drawn) [Compound 363] | < 100 | < 100 | 
3 | Cc1nc(N2CCCN(c3ccc(-c4nc5c(F)cccc5s4)cc3)C2=O)sc1S(N)(=O)=O [Compound 90] | 100 to 1000 | 100 to 1000 | 
4 | Cc1nc(N2CCCN(c3ccc(-c4cccc5[nH]cnc45)cc3)C2=O)sc1S(N)(=O)=O [Compound 74] | 100 to 1000 | 100 to 1000 | 
5 | Cc1nc(N2CCCN(Cc3cccc(-c4cc(F)ccc4F)c3)C2=O)sc1S(N)(=O)=O [Compound 172, 2-(3-((2′,5′-Difluoro-[1,1′-biphenyl]-3-yl)methyl)-2-oxotetrahydropyrimidin-1(2H)-yl)-4-methylthiazole-5-sulfonamide] | < 100 | < 100 | 
6 | Cc1nc(N2CCCN(c3ccc(-c4ncco4)cc3)C2=O)sc1S(N)(=O)=O [Compound 41] | 100 to 1000 | 100 to 1000 | 
7 | Cc1nc(N2CCCN(c3ccc(-c4cccc5ncccc45)cc3)C2=O)sc1S(N)(=O)=O [Compound 84] | < 100 | 100 to 1000 | 
8 | Cc1nc(N2CCCN(c3ccc(-c4cc(F)cc(-c5cnn(C(F)F)c5)c4F)cc3)C2=O)sc1S(N)(=O)=O [Compound 228, 2-(3-(3′-(1-(difluoromethyl)-1H-pyrazol-4-yl)-2′,5′-difluoro-[1,1′-biphenyl]-4-yl)-2-oxotetrahydropyrimidin-1(2H)-yl)-4-methylthiazole-5-sulfonamide] | < 100 | < 100 | 
9 | Cc1nc(N2CCCN(c3ccc(-c4cc(F)cc(-c5cncs5)c4F)cc3)C2=O)sc1S(N)(=O)=O [Compound 211] | < 100 | < 100 | 
10 | Cc1nc(N2CCCN(c3ccc(-c4cc(F)cc5c4ccn5C)cc3)C2=O)sc1S(N)(=O)=O [Compound 251] | < 100 | < 100 | 
11 | NS(=O)(=O)c1sc(N2CCCN(c3ccc(-c4cc(F)ccc4F)cc3)C2=O)nc1CF [Compound 441, 2-(3-(2′,5′-difluoro-[1,1′-biphenyl]-4-yl)-2-oxotetrahydropyrimidin-1(2H)-yl)-4-(fluoromethyl)thiazole-5-sulfonamide] | < 100 | < 100 | 
12 | CNS(=O)(=O)c1sc(N2CCCN(c3ccc(-c4ccccc4F)c(F)c3)C2=O)nc1C [Compound 132] | < 100 | 100 to 1000 | 
13 | Cc1nc(N2CCCN(c3ccc(-c4ccccc4F)cc3)C2=O)sc1S(N)(=O)=O [Compound 8] | < 100 | < 100 | 
14 | Cc1nc(N2CC3(COC3)CN(c3ccc(-c4cc(F)cc(-c5cnn(C(F)F)c5)c4F)cc3)C2=O)sc1S(C)(=O)=O [Compound 434] | < 100 | < 100 | 
15 | Cc1nc(N2CCCN(c3ccc(-c4cc(F)cc5nsnc45)cc3)C2=O)sc1S(N)(=O)=O [Example 259] |  |  | EC50 [2]: 7 nM; fold more active than Example 314 (5-membered ring analog) ([2]; ratio of EC50 vs Example 314, assay not stated, HSV-2 values only): 4 fold; EC50 ([3]; 4 days): 10 nM
16 | Cc1nc(N2C[C@H](C)CN(c3ccc(-c4ccccc4Cl)cc3)C2=O)sc1S(N)(=O)=O (single isomer, unassigned) [Compound 322] | < 100 | < 100 | 
17 | Cc1nc(N2CCCN(C(C)c3cccc(-c4cc(F)ccc4F)c3)C2=O)sc1S(N)(=O)=O (stereo not drawn) [Compound 174, 2-(3-(1-(2′,5′-Difluoro-[1,1′-biphenyl]-3-yl)ethyl)-2-oxotetrahydropyrimidin-1(2H)-yl)-4-methylthiazole-5-sulfonamide] | 1000 to 5000 | 1000 to 5000 | 
18 | Cc1nc(N2CCCN(c3ccc(-c4cccc5c4CC(=O)N5C)cc3)C2=O)sc1S(N)(=O)=O [Compound 77] | 100 to 1000 | 100 to 1000 | 
